# In US6613718B2, “Aryl ether derivatives and processes for their preparation and herbicidal and desiccant compositions containing them” (Ishihara Sangyo Kaisha, Ltd., priority 2001, dated 2003):
# Assays:
# Assay type in all cases: in vivo
# Details in all cases: 14 days after application
# [1] = test system: barnyardgrass (Echinochloa crus-galli, ECHCG); assay: Pre-emerge greenhouse herbicide activity screening, phytotoxicity rating
# From the text: (§1) A standard greenhouse herbicide activity screening system was used to evaluate the herbicidal efficacy and crop safety of these test compounds. Seven broadleaf weed species including redroot pigweed (Amaranthus retroflexus, AMARE), velvetleaf (Abutilon theophrasti, ABUTH), sicklepod (Cassia obtusifolia, CASOB), ivyleaf morningglory (Ipomoea hederacea, IPOHE), lambsquarters (Chenopodium album, CHEAL), common ragweed (Ambrosia artemisiifolia L., AMBEL), and cocklebur (Xanthium strumarium, XANST) were used as test species. Four grass weed species including green foxtail (Setaria viridis, SETVI), barnyardgrass (Echinochloa crus-galli, ECHCG), johnsongrass (Sorghum halepense, SORHA), and large crabgrass (Digitaria sanguinalis, DIGSA) were also used. In addition, three crop species, field corn (Zea mays L., var. Dekalb 535, CORN), soybean (Glycine max L., var. Pella 86, SOY), and upland rice (Oryza sp., var.Tebonnet, RICE) were included.
# (§2) All plants were grown in 10 cm square plastic pots which were filled with a sandy loam soil mix. For pre-emerge tests, seeds were planted one day prior to application of the test compounds. For post-emerge tests, seeds were planted 8-21 days prior to the test to allow emergence and good foliage development prior to application of the test substances. At the time of the post-emerge application, plants of all species were usually at the 2-3 leaf stage of development.
# (§3) All test compounds were dissolved in acetone and applied to the test units in a volume of 187 1/ha. Test materials were applied at rates ranging from 15 g ai/ha to 1000 g ai/ha using a track sprayer equipped with a TJ8001E even flow flat fan spray nozzle. Plants were arranged on a shelf so that the top of the canopy (post-emerge) or top of the soil surface (pre-emerge) was 40-45 cm below the nozzle. Pressurized air was used to force the test solution through the nozzle as it was mechanically advanced (via electrically driven chain drive) over the top of all test plants/pots. This application simulates a typical commercial field herbicide application.
# (§4) In the post-emerge test, a commercial non-ionic surfactant was also included (0.25% v/v) to enhance wetting of the leaf surfaces of target plants. Immediately after application, test units of the pre-emerge applications were watered at the soil surface to incorporate the test materials. Subsequently, these test units were bottom-watered. Post-emerge test units were always bottom-watered.
# (§5) At 14 days after application of the test materials, phytotoxicity ratings were recorded. A rating scale of 0-100 was used as previously described in Research Methods in Weed Science, 2nd edition, B. Truelove, Ed., Southern Weed Science Society, Auburn University, Auburn, Ala., 1977. Briefly, “0” corresponds to no damage and “100” corresponds to complete death of all plants in the test unit. This scale was used both to determine efficacy against weed species and damage to crop species. Herbicide activity data for various compounds of this invention, which are shown by compound No. in Tables I-VI, are shown in Tables VIII-IX.
# [2] = test system: common ragweed (Ambrosia artemisiifolia L., AMBEL); assay: as above
# From the text: as §1, §2, §3, §4, §5
# [3] = test system: green foxtail (Setaria viridis, SETVI); assay: as above
# From the text: as §1, §2, §3, §4, §5
# [4] = test system: ivyleaf morningglory (Ipomoea hederacea, IPOHE); assay: as above
# From the text: as §1, §2, §3, §4, §5
# [5] = test system: johnsongrass (Sorghum halepense, SORHA); assay: as above
# From the text: as §1, §2, §3, §4, §5
# [6] = test system: lambsquarters (Chenopodium album, CHEAL); assay: as above
# From the text: as §1, §2, §3, §4, §5
# [7] = test system: large crabgrass (Digitaria sanguinalis, DIGSA); assay: as above
# From the text: as §1, §2, §3, §4, §5
# [8] = test system: redroot pigweed (Amaranthus retroflexus, AMARE); assay: as above
# From the text: as §1, §2, §3, §4, §5
# [9] = test system: sicklepod (Cassia obtusifolia, CASOB); assay: as above
# From the text: as §1, §2, §3, §4, §5
# [10] = test system: velvetleaf (Abutilon theophrasti, ABUTH); assay: as above
# From the text: as §1, §2, §3, §4, §5
# [11] = test system: field corn (Zea mays L., var. Dekalb 535, CORN); assay: Pre-emerge greenhouse screening, crop safety (phytotoxicity rating)
# From the text: as §1, §2, §3, §4, §5
# [12] = test system: soybean (Glycine max L., var. Pella 86, SOY); assay: as above
# From the text: as §1, §2, §3, §4, §5
# [13] = test system: upland rice (Oryza sp., var.Tebonnet, RICE); assay: as above
# From the text: as §1, §2, §3, §4, §5
# [14] = test system: barnyardgrass (Echinochloa crus-galli, ECHCG); assay: Post-emerge greenhouse herbicide activity screening, phytotoxicity rating
# From the text: as §1, §2, §3, §4, §5
# [15] = test system: common ragweed (Ambrosia artemisiifolia L., AMBEL); assay: as above
# From the text: as §1, §2, §3, §4, §5
# [16] = test system: green foxtail (Setaria viridis, SETVI); assay: as above
# From the text: as §1, §2, §3, §4, §5
# [17] = test system: ivyleaf morningglory (Ipomoea hederacea, IPOHE); assay: as above
# From the text: as §1, §2, §3, §4, §5
# [18] = test system: johnsongrass (Sorghum halepense, SORHA); assay: as above
# From the text: as §1, §2, §3, §4, §5
# [19] = test system: lambsquarters (Chenopodium album, CHEAL); assay: as above
# From the text: as §1, §2, §3, §4, §5
# [20] = test system: large crabgrass (Digitaria sanguinalis, DIGSA); assay: as above
# From the text: as §1, §2, §3, §4, §5
# [21] = test system: redroot pigweed (Amaranthus retroflexus, AMARE); assay: as above
# From the text: as §1, §2, §3, §4, §5
# [22] = test system: sicklepod (Cassia obtusifolia, CASOB); assay: as above
# From the text: as §1, §2, §3, §4, §5
# [23] = test system: velvetleaf (Abutilon theophrasti, ABUTH); assay: as above
# From the text: as §1, §2, §3, §4, §5
# [24] = test system: field corn (Zea mays L., var. Dekalb 535, CORN); assay: Post-emerge greenhouse screening, crop safety / corn selectivity (phytotoxicity rating)
# From the text: as §1, §2, §3, §4, §5
# [25] = test system: soybean (Glycine max L., var. Pella 86, SOY); assay: Post-emerge greenhouse screening, crop safety (phytotoxicity rating)
# From the text: as §1, §2, §3, §4, §5
# [26] = test system: upland rice (Oryza sp., var.Tebonnet, RICE); assay: as above
# From the text: as §1, §2, §3, §4, §5
compound,measurement,setting,value
Cn1c(C(F)(F)F)cc(=O)n(-c2cc(Oc3ccccc3C#N)c(Cl)cc2F)c1=S [Compound 1-66],ECHCG phytotoxicity rating (0-100 scale),[1]; 125 g ai/ha,55
same,ECHCG phytotoxicity rating (0-100 scale),[1]; 250 g ai/ha,60
same,AMBEL phytotoxicity rating (0-100 scale),[2]; 125 g ai/ha,60
same,AMBEL phytotoxicity rating (0-100 scale),[2]; 250 g ai/ha,65
same,SETVI phytotoxicity rating (0-100 scale),[3]; 125 g ai/ha,99
same,SETVI phytotoxicity rating (0-100 scale),[3]; 250 g ai/ha,100
same,IPOHE phytotoxicity rating (0-100 scale),[4]; 125 g ai/ha,90
same,IPOHE phytotoxicity rating (0-100 scale),[4]; 250 g ai/ha,100
same,SORHA phytotoxicity rating (0-100 scale),[5]; 125 g ai/ha,60
same,SORHA phytotoxicity rating (0-100 scale),[5]; 250 g ai/ha,75
same,CHEAL phytotoxicity rating (0-100 scale),[6]; 125 g ai/ha,100
same,CHEAL phytotoxicity rating (0-100 scale),[6]; 250 g ai/ha,100
same,DIGSA phytotoxicity rating (0-100 scale),[7]; 125 g ai/ha,90
same,DIGSA phytotoxicity rating (0-100 scale),[7]; 250 g ai/ha,99
same,AMARE phytotoxicity rating (0-100 scale),[8]; 125 g ai/ha,100
same,AMARE phytotoxicity rating (0-100 scale),[8]; 250 g ai/ha,100
same,CASOB phytotoxicity rating (0-100 scale),[9]; 125 g ai/ha,35
same,CASOB phytotoxicity rating (0-100 scale),[9]; 250 g ai/ha,65
same,ABUTH phytotoxicity rating (0-100 scale),[10]; 125 g ai/ha,85
same,ABUTH phytotoxicity rating (0-100 scale),[10]; 250 g ai/ha,99
same,"CORN crop damage, phytotoxicity rating (0-100 scale)",[11]; 125 g ai/ha,0
same,"CORN crop damage, phytotoxicity rating (0-100 scale)",[11]; 250 g ai/ha,0
same,"SOY crop damage, phytotoxicity rating (0-100 scale)",[12]; 125 g ai/ha,0
same,"SOY crop damage, phytotoxicity rating (0-100 scale)",[12]; 250 g ai/ha,0
same,"RICE crop damage, phytotoxicity rating (0-100 scale)",[13]; 125 g ai/ha,40
same,"RICE crop damage, phytotoxicity rating (0-100 scale)",[13]; 250 g ai/ha,45
same,ECHCG phytotoxicity rating (0-100 scale),[14]; 125 g ai/ha,0
same,ECHCG phytotoxicity rating (0-100 scale),[14]; 250 g ai/ha,0
same,AMBEL phytotoxicity rating (0-100 scale),[15]; 125 g ai/ha,75
same,AMBEL phytotoxicity rating (0-100 scale),[15]; 250 g ai/ha,75
same,SETVI phytotoxicity rating (0-100 scale),[16]; 125 g ai/ha,0
same,SETVI phytotoxicity rating (0-100 scale),[16]; 250 g ai/ha,0
same,IPOHE phytotoxicity rating (0-100 scale),[17]; 125 g ai/ha,70
same,IPOHE phytotoxicity rating (0-100 scale),[17]; 250 g ai/ha,85
same,SORHA phytotoxicity rating (0-100 scale),[18]; 125 g ai/ha,0
same,SORHA phytotoxicity rating (0-100 scale),[18]; 250 g ai/ha,0
same,CHEAL phytotoxicity rating (0-100 scale),[19]; 125 g ai/ha,98
same,CHEAL phytotoxicity rating (0-100 scale),[19]; 250 g ai/ha,100
same,DIGSA phytotoxicity rating (0-100 scale),[20]; 125 g ai/ha,0
same,DIGSA phytotoxicity rating (0-100 scale),[20]; 250 g ai/ha,0
same,AMARE phytotoxicity rating (0-100 scale),[21]; 125 g ai/ha,70
same,AMARE phytotoxicity rating (0-100 scale),[21]; 250 g ai/ha,70
same,CASOB phytotoxicity rating (0-100 scale),[22]; 125 g ai/ha,75
same,CASOB phytotoxicity rating (0-100 scale),[22]; 250 g ai/ha,75
same,ABUTH phytotoxicity rating (0-100 scale),[23]; 125 g ai/ha,90
same,ABUTH phytotoxicity rating (0-100 scale),[23]; 250 g ai/ha,90
same,"CORN crop damage, phytotoxicity rating (0-100 scale)",[24]; 125 g ai/ha,0
same,"CORN crop damage, phytotoxicity rating (0-100 scale)",[24]; 250 g ai/ha,0
same,"SOY crop damage, phytotoxicity rating (0-100 scale)",[25]; 125 g ai/ha,10
same,"SOY crop damage, phytotoxicity rating (0-100 scale)",[25]; 250 g ai/ha,10
same,"RICE crop damage, phytotoxicity rating (0-100 scale)",[26]; 125 g ai/ha,0
same,"RICE crop damage, phytotoxicity rating (0-100 scale)",[26]; 250 g ai/ha,0
